Measurements taken from ChEMBL document CHEMBL1128291, “The C-32 triacetyl-L-rhamnose derivative of ascomycin: a potent, orally active macrolactone immunosuppressant” (J Med Chem, 1995).

What was measured:
T-cell [1] = assay: In vitro inhibitory activity against human T-cell production of lymphokine IL-2; assay type: functional, cell-based
Rattus norvegicus [2] = organism: Rattus norvegicus; assay: Minimum neurotoxic dose from ED50(rat adjuvant arthritis); assay type: functional
[3] = Therapeutic index is the plasma Cmax ratio of the minimum neurotoxic dose over the ED50 dose in rat adjuvant arthritis; details: read-out: TI
Rattus norvegicus [4] = assay: In vivo immunosuppressive activity was evaluated by surgically implanting the hearts from Brown Norway rats into the peritoneal cavity of histoincompatible Lewis rats and rejection was assessed; assay type: functional
T-cell [5] = assay: In vitro inhibitory activity against human T-cell proliferation.; assay type: functional, cell-based
[6] = Drug plasma level in rat was determined on the last day of dosing at 1,2,4.8 and 24 hr and ED50 was evaluated; assay type: ADME, organism-based
[7] = Therapeutic index was determined from the ratio of MND to the ED50 Cmax.(rat adjuvant arthritis)
Rattus norvegicus [8] = organism: Rattus norvegicus; assay: Minimum neurotoxic dose/Cmax was determined from ED50(rat adjuvant arthritis); assay type: functional
Rattus norvegicus [9] = assay: In vivo immunosuppressive activity was evaluated by inducing arthritis in lewis rats and measuring the secondary lesions after 16 days; assay type: functional; details: 384 h
Rattus norvegicus [10] = assay: In vivo immunosuppressive activity was evaluated by inducing arthritis in lewis rats and measuring the primary lesions after 16 days; assay type: functional; details: 384 h

| Compound | IC50 (T-cell [1]) [nM] | MND (Rattus norvegicus [2]) [mg/kg] | selectivity ratio [3] | ED100 (Rattus norvegicus [4]) [mg/kg] | IC50 (T-cell [5]) [nM] | Cmax [6] [ng/mL] | Therapeutic index [7] | MND Cmax (Rattus norvegicus [8]) [ng/mL] | ED50 (Rattus norvegicus [9]) [mg/kg] | ED50 (Rattus norvegicus [10]) [mg/kg] |
| --- | --- | --- | --- | --- | --- | --- | --- | --- | --- | --- |
| CC[C@@H]1/C=C(\C)C[C@H](C)C[C@H](OC)[C@H]2O[C@@](O)(C(=O)C(=O)N3CCCC[C@H]3C(=O)O[C@H](/C(C)=C/[C@@H]3CC[C@@H](OC4OC(C)C(OC(C)=O)C(OC(C)=O)C4OC(C)=O)[C@H](OC)C3)[C@H](C)[C@@H](O)CC1=O)[C@H](C)C[C@@H]2OC (stereo partly drawn) | 11 | > 300 | > 10 | 30 | 10.4 | 254 | > 10 | > 2910 | 2.3 | 10 |
| C/C=C/C[C@@H](C)[C@@H](O)[C@H]1C(=O)N[C@@H](CC)C(=O)N(C)CC(=O)N(C)[C@@H](CC(C)C)C(=O)N[C@@H](C(C)C)C(=O)N(C)[C@@H](CC(C)C)C(=O)N[C@@H](C)C(=O)N[C@H](C)C(=O)N(C)[C@@H](CC(C)C)C(=O)N(C)[C@@H](CC(C)C)C(=O)N(C)[C@@H](C(C)C)C(=O)N1C [CYCLOSPORINE] | – | – | – | 15 | – | – | – | – | 0.7 | 3.4 |
| C=CC[C@@H]1/C=C(\C)C[C@H](C)C[C@H](OC)[C@H]2O[C@@](O)(C(=O)C(=O)N3CCCC[C@H]3C(=O)O[C@H](/C(C)=C/[C@@H]3CC[C@@H](O)[C@H](OC)C3)[C@H](C)[C@@H](O)CC1=O)[C@H](C)C[C@@H]2OC [TACROLIMUS ANHYDROUS] | 0.9 | 12 | ~2 | 3 | 0.5 | 24 | 2 | 52 | 0.6 | 1.9 |
